We go through 18 compounds from patent publication US9738604B2, “Ethynylbenzene derivatives” (Duke University, priority 2010, dated 2017).

Converted amounts (≈) assume the structure as drawn.

What all share (type): cell-based
For experiment [1], the system named is Acinetobacter Baumannii antibiotic susceptible strain (Sus. A.b. Isolate). Kind of experiment: Disk diffusion assay, antibiotic susceptible strain. Details: key to diameter of the growth inhibition, Sus. A.b. Isolate: A: no detectable inhibition; B: 6-10 mm; C: 11-15 mm; D: ≧16. The note with it: 2 μg of compound per disc, disc 6 mm in diameter; for zone of inhibition at 2 µg/disc: Acinetobacter baumannii, read-out: diameter of the growth inhibition, Sus. A.b. Isolate.

In experiment [2] the test system is Acinetobacter Baumannii multidrug-resistant strain (MDR A.b. Isolate). In words: Disk diffusion assay, multidrug-resistant strain. Also noted: key to diameter of the growth inhibition, MDR A.b. Isolate: A: no detectable inhibition; B: 6-10 mm; C: 11-15 mm; D: ≧16. As to conditions: 2 μg of compound per disc, disc 6 mm in diameter; for zone of inhibition at 2 µg/disc: Acinetobacter baumannii, read-out: diameter of the growth inhibition, MDR A.b. Isolate.

Another experiment concerns E. coli W3110. Kind of experiment: microbe, parasite or virus in culture. As to conditions: for MIC: Escherichia coli, W3110, 22 h, read-out: MIC E. coli W3110.
Another experiment deals with P. aeruginosa (PAO1). Kind of experiment: MIC, P. aeruginosa. The note with it: for MIC P. aeruginosa (PAO1): 22 hours at 37° C., MTT; for MIC: Pseudomonas aeruginosa, PAO1, 22 h, read-out: MIC P. aeruginosa (PAO1).
The next experiment deals with E. coli W3110RL. Kind of experiment: microbe, parasite or virus in culture. The note with it: for MIC E. coli W3110RL: E. coli with lpxC of R. leguminosarum, 22 hours at 37° C., MTT; for MIC: Escherichia coli, W3110RL, 22 h, read-out: MIC E. coli W3110RL.
The subject of a further experiment is E. coli W3110PA. Kind of experiment: microbe, parasite or virus in culture. The note with it: for MIC E. coli W3110PA: E. coli with lpxC of P. aeruginosa, 22 hours at 37° C., MTT; for MIC: Escherichia coli, W3110PA, 22 h, read-out: MIC E. coli W3110PA.

As to `C[C@@H](O)[C@H]1C(=O)N2C(C(=O)O)=C(SCCN=CN)C[C@H]12` [Imipenem], the zone of inhibition at 2 µg/disc in experiment [1] is at least 16 mm. In addition, the “diameter of the growth inhibition, MDR A.b. Isolate” value in experiment [2] was “A”.
The like results for `O=C(N[C@H](CO)[C@H](O)c1ccc([N+](=O)[O-])cc1)C(Cl)Cl` [Chloramphenicol] were, in that order, 6 to 10 mm and “A”.
The matching figures for `CN(C)[C@@H]1C(O)=C(C(N)=O)C(=O)[C@@]2(O)C(O)=C3C(=O)c4c(O)cccc4[C@@](C)(O)[C@H]3C[C@@H]12` [Tetracycline]: 6 to 10 mm and “A”.
On to `C[C@@H](O)[C@H](NC(=O)c1ccc(C#CC#Cc2cccc(N)c2)cc1)C(=O)NO` [CPD-012, (2S,3R)-2-{4′-[(3″-aminophenyl)buta-1′,3′-diynyl]benzamido}-1,3-dihydroxybutanamide], for which the “diameter of the growth inhibition, Sus. A.b. Isolate” value in experiment [1] is “A”. For the same compound, the “MIC E. coli W3110” value in the experiment on E. coli W3110 is reported as “A (key: A: <1 μg/mL; B: 1-10 μg/mL; C: 11-50 μg/mL; D: 51-100 μg/mL; E: >100 μg/mL)”. Also, the “MIC P. aeruginosa (PAO1)” value against P. aeruginosa (PAO1) is “A (<1 μg/mL)”. In the experiment on E. coli W3110RL, the “MIC E. coli W3110RL” value was “B (1-10 μg/mL)”. Moreover, the “MIC E. coli W3110PA” value in the experiment with E. coli W3110PA is listed as “A (<1 μg/mL)”. Further, the “diameter of the growth inhibition, MDR A.b. Isolate” value in experiment [2] is on record as “A”.
As to `CC1(C)S[C@@H]2[C@H](NC(=O)C(C(=O)O)c3ccccc3)C(=O)N2[C@H]1C(=O)O` (stereo partly drawn) [Carbenicillin], in experiment [1], the “diameter of the growth inhibition, Sus. A.b. Isolate” value was “A”. Further, the “diameter of the growth inhibition, MDR A.b. Isolate” value in experiment [2] is reported as “A”.
With `CC(C)(O)[C@H](NC(=O)c1ccc(C#CC#Cc2ccc(N)cc2)cc1)C(=O)NO` [CPD-037, (2S)-2-({4′-[4′-(4′-aminophenyl)buta-1′,3′-diyn-1-yl]phenyl}formamido)-N,3′-dihydroxy-3′-methylbutanamide], the zone of inhibition at 2 µg/disc lay within 11 to 15 mm in experiment [1] and 6 to 10 mm in experiment [2]. For the same compound, the MIC is below 1 µg/mL with E. coli W3110, below 1 µg/mL with P. aeruginosa (PAO1), 1 to 10 µg/mL (≈ 2.55 to 25.5 µM) in the experiment with E. coli W3110RL and below 1 µg/mL in the experiment with E. coli W3110PA.
Take `C[C@@](O)(C(F)F)[C@H](NC(=O)c1ccc(C#CC#Cc2ccc(N)cc2)cc1)C(=O)NO` [CPD-058, 4-((4-aminophenyl)buta-1,3-diynyl)-N-((2S,3S)-4,4-difluoro-3-hydroxy-1-(hydroxyamino)-3-methyl-1-oxobutan-2-yl)benzamide]: the zone of inhibition at 2 µg/disc in experiment [1] and in experiment [2] was 11 to 15 mm throughout. For the same compound, the MIC with E. coli W3110, in the experiment on P. aeruginosa (PAO1), with E. coli W3110RL and in the experiment with E. coli W3110PA was below 1 µg/mL throughout.
`C[C@H](NC(=O)c1ccc(C#CC#Cc2ccc(N)cc2)cc1)C(=O)NO` [CPD-020, (2S)-2-({4′-[4′-(4′-aminophenyl)buta-1′,3′-diyn-1′-yl]phenyl}formamido)-N-hydroxypropanamide]: the “MIC E. coli W3110” value against E. coli W3110 is “A (key: A: <1 μg/mL; B: 1-10 μg/mL; C: 11-50 μg/mL; D: 51-100 μg/mL; E: >100 μg/mL)”. The “MIC P. aeruginosa (PAO1)” value with P. aeruginosa (PAO1) was “C (11-50 μg/mL)”. In addition, in the experiment with E. coli W3110RL, the “MIC E. coli W3110RL” value is reported as “B (1-10 μg/mL)”. Besides, in the experiment on E. coli W3110PA, the “MIC E. coli W3110PA” value is “B (1-10 μg/mL)”.
Turning to `O=C(O)c1cn(C2CC2)c2cc(N3CCNCC3)c(F)cc2c1=O` [Ciprofloxacin], the zone of inhibition at 2 µg/disc in experiment [1] was at least 16 mm. Further, in experiment [2], the “diameter of the growth inhibition, MDR A.b. Isolate” value is given as “A”.
Turning to `Nc1ccc(C#CC#Cc2ccc(C(=O)NC3CCN(O)C3=O)cc2)cc1` (stereo not drawn) [CPD-043, 4-((4-aminophenyl)buta-1,3-diynyl)-N-(1-hydroxy-2-oxopyrrolidin-3-yl)benzamide], the MIC in the experiment on E. coli W3110 was below 1 µg/mL; in the experiment with P. aeruginosa (PAO1) it was 51 to 100 µg/mL (≈ 142 to 278 µM); in the experiment on E. coli W3110RL, 51 to 100 µg/mL (≈ 142 to 278 µM); in the experiment with E. coli W3110PA it was 51 to 100 µg/mL (≈ 142 to 278 µM).
For `Nc1ccc(C#CC#Cc2ccc(C(=O)N[C@@H]3CCN(O)C3=O)cc2)cc1` [CPD-044, (R)-4-((4-aminophenyl)buta-1,3-diynyl)-N-(1-hydroxy-2-oxopyrrolidin-3-yl)benzamide], the MIC in the experiment on E. coli W3110 is below 1 µg/mL; with P. aeruginosa (PAO1), 51 to 100 µg/mL (≈ 142 to 278 µM); in the experiment with E. coli W3110RL, 51 to 100 µg/mL (≈ 142 to 278 µM); with E. coli W3110PA, 51 to 100 µg/mL (≈ 142 to 278 µM).
As to `NCCCC[C@H](NC(=O)c1ccc(C#CC#Cc2ccc(N)cc2)cc1)C(=O)NO` [CPD-032, (2S)-6-amino-2-({4′-[4′-(4′-aminophenyl)buta-1′,3′-diyn-1-yl]phenyl}formamido)-N-hydroxyhexanamide], the “MIC E. coli W3110” value with E. coli W3110 is “C (key: A: <1 μg/mL; B: 1-10 μg/mL; C: 11-50 μg/mL; D: 51-100 μg/mL; E: >100 μg/mL)”. Also, the “MIC P. aeruginosa (PAO1)” value against P. aeruginosa (PAO1) is on record as “C (11-50 μg/mL)”. For the same compound, the “MIC E. coli W3110RL” value against E. coli W3110RL is listed as “D (51-100 μg/mL)”. In addition, the “MIC E. coli W3110PA” value in the experiment on E. coli W3110PA was “C (11-50 μg/mL)”.
In the case of `C[C@@H](O)[C@H](NC(=O)c1ccc(C#CC#Cc2ccc(N)cc2)cc1)C(=O)O` [CPD-046, (2S,3R)-2-(4-((4-aminophenyl)buta-1,3-diynyl)benzamido)-3-hydroxybutanoic acid], the MIC with E. coli W3110 lay in the range of 1 to 10 µg/mL (≈ 2.76 to 27.6 µM); in the experiment with P. aeruginosa (PAO1), 51 to 100 µg/mL (≈ 141 to 276 µM); with E. coli W3110RL, 51 to 100 µg/mL (≈ 141 to 276 µM); in the experiment with E. coli W3110PA, 51 to 100 µg/mL (≈ 141 to 276 µM).
On to `Nc1ccc(OCC#Cc2ccc(C(=O)N[C@@H]3CCN(O)C3=O)cc2)cc1` [CPD-060, (R)-4-(3-(4-aminophenoxy)prop-1-ynyl)-N-(1-hydroxy-2-oxopyrrolidin-3-yl)benzamide], for which the MIC was 1 to 10 µg/mL (≈ 2.74 to 27.4 µM) in the experiment with E. coli W3110, 11 to 50 µg/mL (≈ 30.1 to 137 µM) in the experiment on P. aeruginosa (PAO1), 51 to 100 µg/mL (≈ 140 to 274 µM) in the experiment on E. coli W3110RL and 11 to 50 µg/mL (≈ 30.1 to 137 µM) in the experiment on E. coli W3110PA.
As to `CC[C@@H](C)[C@H](NC(=O)c1ccc(C#CC#Cc2ccc(N)cc2)cc1)C(=O)NO` [CPD-023, (2S,3R)-2-({4′-[4′-(4′-aminophenyl)buta-1′,3′-diyn-1-yl]phenyl}formamido)-N-hydroxy-3-methylpentanamide], the “MIC E. coli W3110” value with E. coli W3110 is on record as “A (key: A: <1 μg/mL; B: 1-10 μg/mL; C: 11-50 μg/mL; D: 51-100 μg/mL; E: >100 μg/mL)”. Also, in the experiment with P. aeruginosa (PAO1), the “MIC P. aeruginosa (PAO1)” value is listed as “D (51-100 μg/mL)”. Moreover, the “MIC E. coli W3110RL” value against E. coli W3110RL was “C (11-50 μg/mL)”. Moreover, the “MIC E. coli W3110PA” value against E. coli W3110PA is “B (1-10 μg/mL)”.
For Polymyxin B, the “diameter of the growth inhibition, Sus. A.b. Isolate” value in experiment [1] is listed as “B (6-10 mm)”. The “diameter of the growth inhibition, MDR A.b. Isolate” value in experiment [2] was “B (6-10 mm)”.
In the case of `Nc1ccc(C#CC#Cc2ccc(C(=O)N[C@@H](CO)C(=O)NO)cc2)cc1` [CPD-027, (2S)-2-({4′-[4′-(4′-aminophenyl)buta-1′,3′-diyn-1′-yl]phenyl}formamido)-N,3-dihydroxypropanamide], the “MIC E. coli W3110” value against E. coli W3110 was “A (key: A: <1 μg/mL; B: 1-10 μg/mL; C: 11-50 μg/mL; D: 51-100 μg/mL; E: >100 μg/mL)”. Also, the “MIC P. aeruginosa (PAO1)” value in the experiment on P. aeruginosa (PAO1) is given as “B (1-10 μg/mL)”. The “MIC E. coli W3110RL” value with E. coli W3110RL is reported as “C (11-50 μg/mL)”. The “MIC E. coli W3110PA” value with E. coli W3110PA is on record as “B (1-10 μg/mL)”.
For `C[C@@H](O)[C@H](NC(=O)c1ccc(C#CC#Cc2ccc(N)cc2)cc1)C(=O)NN` [CPD-045, 4-((4-aminophenyl)buta-1,3-diynyl)-N-((2S,3R)-1-hydrazinyl-3-hydroxy-1-oxobutan-2-yl)benzamide], the MIC with E. coli W3110 fell in the range of 1 to 10 µg/mL (≈ 2.66 to 26.6 µM); in the experiment with P. aeruginosa (PAO1) it was 51 to 100 µg/mL (≈ 135 to 266 µM); with E. coli W3110RL it was 51 to 100 µg/mL (≈ 135 to 266 µM); in the experiment on E. coli W3110PA, 51 to 100 µg/mL (≈ 135 to 266 µM).
